Results published in patent US20250388568A1, “NLRP3 INHIBITORS” (Kodiak Sciences Inc., priority 2022, published 2025).

How the values were obtained:
[1] = system: IL-1β release in U937 cells after NLRP3 activation; experiment: IC50 determination of IL-1β release inhibition in U937 cells; assay type: cell-based; conditions: Homo sapiens, U-937; PMA-differentiated U937 cells, LPS priming 5 h, nigericin; average of at least three experiments; read-out: IL-1β IC50 (nM) U937 cells
Procedure, shortened: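 PMA-differentiated U937 cells (90 h) were primed 5 h with 1 μg/mL LPS, pre-incubated 30 min with compound, then stimulated with nigericin for 1 h. Supernatant IL-1β was quantified by MSD electrochemiluminescence. IC50 was derived from IL-1β concentration, with duplicate wells per compound.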

[2] = system: IL-1β release in THP-1-ASC-GFP cells after NLRP3 activation; experiment: IC50 determination of IL-1β release inhibition in THP-1-ASC-GFP cells; assay type: cell-based; conditions: THP1-ASC-GFP; THP-1-ASC-GFP cells, LPS priming 4 h, nigericin; average of at least three experiments; read-out: IL-1β IC50 (nM) THP1 cells
Procedure, shortened: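 THP-1-ASC-GFP cells were primed with 1 μg/mL LPS for 4 h, pretreated with compound for 30 min, then stimulated with nigericin plus compound for 1 h. Secreted IL-1β in supernatants was quantified by MSD electrochemiluminescence immunoassay. IC50 values were calculated from the measured IL-1β concentrations.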

SMILES	IC50 [1] [nM]	IC50 [2] [nM]
Cn1nc(S(=O)(=O)NC(=O)Nc2c3c(c(F)c4c2CCC4)CCC3)cc1CN1CCC[C@@H]1CO [Example 63, (R)-N-((8-fluoro-1,2,3,5,6,7-hexahydro-s-indacen-4-yl)carbamoyl)-5-((2-(hydroxymethyl)pyrrolidin-1-yl)methyl)-1-methyl-1 H-pyrazole-3-sulfonamide]	5 to 50	5 to 50
CC(C)(O)c1cc(S(=O)(=O)NC(=O)Nc2c3c(c(F)c4c2CCC4)CCC3)oc1COC1CNC1 [Example 71, 5-((azetidin-3-yloxy)methyl)-N-((8-fluoro-1,2,3,5,6,7-hexahydro-s-indacen-4-yl)carbamoyl)-4-(2-hydroxypropan-2-yl)furan-2-sulfonamide]	5 to 50	< 5
CC(O)c1cc(S(=O)(=O)NC(=O)Nc2c3c(c(F)c4c2CCC4)CCC3)oc1CN1CCNCC1 (stereo not shown) [Example 72, N-((8-fluoro-1,2,3,5,6,7-hexahydro-s-indacen-4-yl)carbamoyl)-4-(1-hydroxyethyl)-5-(piperazin-1-ylmethyl)furan-2-sulfonamide]	5 to 50	5 to 50

The next lines start with the values.

IC50 [1] [nM]	IC50 [2] [nM]	SMILES
5 to 50	5 to 50	O=C(Nc1c2c(cc3c1CCC3)CCC2)NS(=O)(=O)c1cc2c(o1)CCNC2 [Example 73, N-((1,2,3,5,6,7-hexahydro-s-indacen-4-yl)carbamoyl)-4,5,6,7-tetrahydrofuro[3,2-c]pyridine-2-sulfonamide]
5 to 50	5 to 50	O=C(Nc1c2c(cc3c1CCC3)CCC2)NS(=O)(=O)c1cc2c(o1)CCN(CCCO)C2 [Example 74, N-((1,2,3,5,6,7-hexahydro-s-indacen-4-yl)carbamoyl)-5-(3-hydroxypropyl)-4,5,6,7-tetrahydrofuro[3,2-c]pyridine-2-sulfonamide]
